Results reported in publication PMC7496096, “Functional Characterisation of ClpP Mutations Conferring Resistance to Acyldepsipeptide Antibiotics in Firmicutes” (Chembiochem, 2020).
Values after ≈ are worked out from the molar mass of the structure shown.

Key:
wild-type SaClpP [1] = assay: FITC-casein degradation by ADEP-activated ClpP; type: biochemical, Staphylococcus aureus; details: 1 μM SaClpP, 20 μM FITC-casein, 32 °C; Figure 6D
Description: (§1) Peptide and protein degradation assays: Degradation assays with the fluorogenic peptide substrate Suc‐Leu‐Tyr‐7‐amino‐4‐methylcoumarin (Suc‐LY‐AMC) were performed in either BsClpP (50 mM Tris‐HCl, 25 mM MgCl2, 200 mM KCl, 2 mM DTT, pH 8) or SaClpP activity buffer (100 mM HEPES pH 7, 100 mM NaCl) in black, flat‐bottom‐96‐well plates (Sarstedt) with a total reaction volume of 100 μl and reaction temperatures of 32 °C and 37 °C for SaClpP and BsClpP, respectively. Purified ClpP proteins (final concentrations as indicated in the respective experiments) and ADEP2 (applied in 1 μl from a DMSO stock solution) were mixed and pre‐incubated for 15 min at reaction temperatures. […] Fluorophore release upon peptide hydrolysis was read out in a Tecan Infinite M200Pro plate reader (excitation/emission: 380/460 nm) every 30–60 s for 1 h. […] SaClpP (1 μM) and ADEP2 (concentrations as indicated) were pre‐incubated at 32 °C for 15 min before initiating the reaction by addition of FITC – casein (20 μM final concentration) and fluorescence readout (excitation/emission: 485/535 nm). In both assays, enzyme velocity was determined by linear regression of the initial segment of the fluorescence‐time plot in GraphPad Prism 5. […] Decrease of fluorescence was monitored at an emission wavelength of 535 nm in white, flat‐bottom 96‐well‐plates (Greiner). […]

wild-type SaClpP [2] = assay: Suc-LY-AMC peptide degradation by ADEP-activated ClpP; type: biochemical, Staphylococcus aureus; details: 1 μM SaClpP, 100 μM Suc-LY-AMC, 32 °C, 15 min pre-incubation; Figure 6B
Description: as §1

E. faecalis ATCC 29212 = assay: microbe, parasite or virus in culture; type: cell-based, Enterococcus faecalis; details: broth microdilution, Mueller-Hinton broth (without cation adjustment), CLSI, inoculum 5×10^4 CFU mL^−1; wild type
Description: (§2) Determination of antibacterial activity: ADEP1 was purified from the culture supernatant of S. hawaiiensis NRRL 15010 as described.4 ADEPs 2, 4, 7, 9 were custom synthesised by EMC Microcollections, Tübingen, or provided by AiCuris, Wuppertal, Germany. The minimal inhibitory concentration (MIC) was determined by broth microdilution in Mueller‐Hinton broth (without cation adjustment) according to the guidelines of the Clinical Laboratory Standards Institute (CLSI).69 The inoculum was set to 5×10^4 CFU mL^−1 to allow some distance to the determined spontaneous resistance frequencies. […] All other ADEPs were used from DMSO stock solutions kept at −20 °C.

B. subtilis RC10 = type: cell-based, Bacillus subtilis; details: resistant clone of B. subtilis 168; ClpP A177→V (C-terminus; α7)
Description: as §2
(§3) Screening for ADEP‐resistant mutants and determination of resistance rates: Single colonies of wild‐type strains grown on Mueller‐Hinton agar plates overnight were suspended in sterile saline and a final inoculum of 5×10^6 cells was spread on plates supplemented with different ADEP congeners at 4× and 10× the MIC. For B. subtilis strain 3xclpP, ADEP7‐containing Mueller‐Hinton agar plates were additionally supplemented with 1 mM IPTG. Resistant colonies were counted after 24 h at 37 °C and colonies were randomly chosen for MIC determinations and sequencing. Mutations in the clpP gene of the respective isolated mutants were analysed by amplifying the clpP gene (and upstream promoter region) by PCR and sequencing of the resulting PCR amplicons (LGC genomics). Sequencing data were analysed by using SnapGene software (GSL Biotech).

[3] = tested on: B. subtilis 3xclpP clones; type: cell-based, Bacillus subtilis; details: B. subtilis 3xclpP resistant clones
Description: as §2, §3

B. subtilis RC5 = type: cell-based, Bacillus subtilis; details: resistant clone of B. subtilis 168; ClpP K85→STOP, premature stop
Description: as §2, §3

B. subtilis RC12 = type: cell-based, Bacillus subtilis; details: resistant clone of B. subtilis 168; ClpP A101→T (ClpP core; α4)
Description: as §2, §3

B. subtilis RC7 = type: cell-based, Bacillus subtilis; details: resistant clone of B. subtilis 168; ClpP Q132→STOP, premature stop
Description: as §2, §3

B. subtilis RC1 = type: cell-based, Bacillus subtilis; details: resistant clone of B. subtilis 168; ClpP E156→STOP, premature stop
Description: as §2, §3

B. subtilis RC6 = type: cell-based, Bacillus subtilis; details: resistant clone of B. subtilis 168; ClpP N65→N; Y183→F (C-terminus; α7)
Description: as §2, §3

B. subtilis RC9 = type: cell-based, Bacillus subtilis; details: resistant clone of B. subtilis 168; ClpP I165→N (equatorial interface; α6)
Description: as §2, §3

S. aureus ATCC 29213 = assay: microbe, parasite or virus in culture; type: cell-based, Staphylococcus aureus; details: broth microdilution, Mueller-Hinton broth (without cation adjustment), CLSI, inoculum 5×10^4 CFU mL^−1; wild type
Description: as §2

S. aureus 133 = assay: microbe, parasite or virus in culture; type: cell-based, Staphylococcus aureus; details: broth microdilution, Mueller-Hinton broth (without cation adjustment), CLSI, inoculum 5×10^4 CFU mL^−1; wild type
Description: as §2

E. faecium L4001 = type: cell-based, Enterococcus faecium; details: broth microdilution, Mueller-Hinton broth; wildtype
Description: as §2

S. pneumoniae RC4 = type: cell-based, Streptococcus pneumoniae; details: resistant clone of S. pneumoniae G9A; ClpP A94→G (ClpP core; β4)
Description: as §2, §3

C[C@@H]1C[C@H]2C(=O)OC[C@H](NC(=O)[C@H](Cc3cc(F)cc(F)c3)NC(=O)CCC3CCCCC3)C(=O)N3CCC[C@H]3C(=O)N3CCCC[C@H]3C(=O)N[C@@H](C)C(=O)N2C1 [ADEP2]
concentration sufficient for an almost maximal casein degradation rate (wild-type SaClpP [1]): 3 µM
concentration sufficient for full catalytic stimulation (Suc-LY-AMC degradation) (wild-type SaClpP [2]): 3 µM
MIC (E. faecalis ATCC 29212): ≤0.031 µg/mL
MIC (B. subtilis RC10): >64 µg/mL
MIC, clpP mutations in the ectopic loci ([3]; mutation in lacA or aprE ectopic copy): ~1 µg/mL (≈ 1.25 µM)
MIC, clpP mutation in the original locus ([3]; mutation in native clpP locus): > 64 µg/mL
MIC (B. subtilis RC5): >64 µg/mL
MIC (B. subtilis RC12): >64 µg/mL
MIC (B. subtilis RC7): >64 µg/mL
MIC (B. subtilis RC1): >64 µg/mL
MIC (B. subtilis RC6): >64 µg/mL
MIC (B. subtilis RC9): >64 µg/mL
MIC (S. aureus ATCC 29213): 0.125 µg/mL (≈ 0.156 µM)
MIC (S. aureus 133): 0.031 µg/mL (≈ 0.0388 µM)
MIC (E. faecium L4001): ≤0.063 µg/mL
MIC (S. pneumoniae RC4): 16 µg/mL (≈ 20 µM)
